In patent US12178825B2, “Method and compositions for forming a copper-containing complex and uses thereof” (COLD SPRING HARBOR LABORATORY, priority 2017, dated 2024):
Entries after “also recorded” stand apart in the source; their conditions may differ.

How the values were obtained:
PTP1B-L192A/S372P = PTP1B-L192A/S372P (Homo sapiens, UniProt P18031, L192A/S372P); assay: Phosphatase assay with MSI-1436-resistant mutant; type: biochemical; settings: read-out: IC50 against PTP1B-L192A/S372P
Text: (§1) All common reagents were obtained from Thermo Fisher Scientific (Waltham, MA) or Sigma-Aldrich (St. Louis, MO). Difluoro-4-methylumbelliferyl phosphate (DiFMUP) was obtained from Invitrogen (cat #D22065). Solid black 384-well plates (cat #3573) for phosphatase assays were from Corning Incorporated (Corning, NY).

TNBC cells [1] = assay: Immunoblot of copper-induced signaling; type: cell-based; settings: co-administration
Text: Equal quantities of lysates were isolated from indicated cell lines and then resolved by SDS-PAGE and immunoblotted with one of the following primary antibodies: mouse anti-MEK1/2, rabbit anti-p-PAK1, rabbit anti-PAK1, rabbit anti-ERK1/2, rabbit anti-phospho(Ser 217/221)-MEK1/2, rabbit anti-phospho(Thr 202/Tyr 204)-ERK1/2, rabbit anti-phospho (Ser 338)-c-RAF, rabbit anti-RAF, rabbit anti-phospho (Ser 112)-BAD and rabbit anti-BAD (Cell Signaling Technology), mouse anti-β-actin (Sigma), followed by detection with one of the following horseradish peroxidase-conjugated secondary antibodies: goat anti-rabbit IgG, goat anti-mouse IgG (Invitrogen), mouse anti-rabbit light-chain-specific IgG (Jackson ImmunoResearch Laboratories) using enhanced chemiluminescence (ECL; GE Healthcare) or SuperSignal West Femto Chemiluminescent substrate (Pierce) detection reagents.

[2] = system: PTP1B1-367, PTP1B1-346 and PTP1B1-321; assay: Phosphatase assay with C-terminal truncation mutants; type: biochemical
Text: as §1

PTP1B1-321 = target: T1, PTP1B1-321 (Homo sapiens, UniProt P18031); assay: PTP1B phosphatase activity assay, short form; type: biochemical
T1 construct: C-terminally truncated PTP1B (1-321); made in house; host or cells: Escherichia coli BL21 (DE3)-RIL
T1 sequence (P18031 1-321): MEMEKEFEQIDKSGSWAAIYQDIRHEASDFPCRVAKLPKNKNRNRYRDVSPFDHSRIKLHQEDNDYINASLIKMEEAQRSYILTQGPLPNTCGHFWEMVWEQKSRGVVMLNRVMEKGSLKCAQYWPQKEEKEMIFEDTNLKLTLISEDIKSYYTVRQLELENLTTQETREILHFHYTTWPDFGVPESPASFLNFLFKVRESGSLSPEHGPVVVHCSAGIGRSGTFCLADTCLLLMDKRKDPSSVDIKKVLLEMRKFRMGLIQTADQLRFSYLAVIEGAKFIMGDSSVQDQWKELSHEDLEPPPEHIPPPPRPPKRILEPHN
Procedure: as §1
Wild-type PTP1B containing a His-tag was expressed in Escherichia coli BL21 (DE3)-RIL using LB. Cells were resuspended in lysis buffer (50 mM Hepes pH 7.2, 150 mM NaCl, 10 mM imidazole, 2 mM TCEP) with cOmplete EDTA-free Protease Inhibitor Cocktail (Roche), and then lysed using a sonicator at 4° C. Lysates were clarified by centrifugation. Initial protein purification was by gravity flow, nickel column chromatography. Protein was used immediately or stored at −80° C. in 50 mM HEPES pH 7.4, 100 mM NaCl, 2 mM dithiothreitol and 25% glycerol.

[3] = system: ATP7B-knockdown HepG2 cells; assay: Copper-induced toxicity, MTT cell survival; type: cell-based; settings: DPM-1001 2 μM; ATP7B-knockdown HepG2
Procedure: HepG2 cells purchased from ATCC were cultured in RPMI media containing 10% FBS, 5% CO2 at 37 C. Control (AG09319) and Wilson's disease patient-derived fibroblasts (GM00032, GM00033, GM05257, GM12158, GM05798 and GM11778) were obtained from Coriell Biorepository and cultured in DMEM, 10% FBS, 5% CO2 at 37° C.
For cell survival assays, 10,000 cells were seeded in a 96 well plate and cultured until fully confluent (90%). To these cells, ATP7B siRNAs or scrambled siRNA (negative control) purchased from Qiagen and Santa Cruz Biotechnology were transfected. Lipofectamine RNAiMAX reagent (Thermofischer) and siRNAs were diluted into a final volume of 100 μl in Opti-MEM (Gibco). The mixture was incubated at room temperature for 30 min, following which 800 μl of Opti-MEM was added to the mixture. The above transfection solution was overlaid onto cells at a final concentration of 5 nM siRNA. Transfection of HepG2 cells with scrambled siRNA served as negative control. Twelve hours after the transfection, complete media was added to each well. Following which, knockdown efficiency was checked (24 hours later) and cells were exposed to varying concentration of copper (0-1 mM) for 12 h and cell viability was determined using the MTT assay as previously described (37). […]

TNBC cells [4] = assay: Cellular copper levels by ICP-MS; type: cell-based
Procedure: TNBC cells (1×10^6) were plated in a 10-cm culture dish in growth medium. About 24 h after seeding cells, they were untreated or treated with DPM-1001 (2 uM) or DPM-1003 (2 uM) for 2 h. Following which, cells were washed three times with PBS. Then, 215 μl of concentrated nitric acid (BDH Aristar Ultra) was added to each sample and incubated overnight. Samples were boiled at 95° C. for 1 h. and approximately 150 μl of each sample was further diluted in 2 ml 2% nitric acid (made freshly from concentrated nitric acid and Milli-Q water). Samples were analyzed on a Thermo Fisher iCAP Qc ICP mass spectrometer in kinetic energy discrimination (KED) mode against a calibration curve of known copper and phosphorus concentrations, with Ga (20 μg/l, Inorganic Ventures) as an internal standard. Each experiment was carried out twice and each condition was repeated in at least triplicate.

[5] = system: insulin receptor β subunit, AKT; assay: Insulin signaling in liver of treated mice; type: in vivo
Text: The antibodies used in the study were purchased from: Upstate Biotechnology (pTyr, catalog 05-321, clone 4G10); Invitrogen (pY1162/1163-IR-β, catalog 700393, clone 97H9L7); Santa Cruz Biotechnology Inc. (IR-β, catalog sc-711, clone C711); Cell Signaling
Technology (JAK2, catalog 3230, clone D2E12; p-T308 AKT (catalog 13038, clone D25E6); AKT (catalog 4691, clone C67E7) and Sigma-Aldrich (actin, catalog A2228, clone AC-74).
All protocols were approved by the Institutional Animal Use and Care Committee of Cold Spring Harbor laboratory. 10 week-old male mice fed chow diet or high-fat diet (D12492) were acclimatized for 10 days under standard conditions before experiments. Mice were injected intraperitoneally (i.p.) once daily with vehicle, 5 mg/kg of DPM-1001 intraperitoneally or orally for 50 days. Mice were euthanized after 6 h of fasting, and serum samples were collected to measure the metabolic parameters and tissue samples were collected for studying changes in signaling.

PTP1B-L192A/S372P, sequence (P18031 whole entry L192A/S372P): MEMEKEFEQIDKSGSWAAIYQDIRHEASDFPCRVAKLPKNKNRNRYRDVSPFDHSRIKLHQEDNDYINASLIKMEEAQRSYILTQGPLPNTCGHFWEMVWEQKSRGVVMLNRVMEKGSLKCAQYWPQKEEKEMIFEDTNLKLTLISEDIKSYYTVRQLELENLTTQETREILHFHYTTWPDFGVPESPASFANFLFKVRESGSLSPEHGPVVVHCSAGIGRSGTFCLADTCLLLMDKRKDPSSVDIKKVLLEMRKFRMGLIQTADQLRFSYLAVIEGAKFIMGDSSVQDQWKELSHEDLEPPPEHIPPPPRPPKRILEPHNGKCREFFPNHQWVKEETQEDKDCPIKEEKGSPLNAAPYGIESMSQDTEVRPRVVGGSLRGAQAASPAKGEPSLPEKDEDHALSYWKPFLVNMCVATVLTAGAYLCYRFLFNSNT

SMILES: COC(=O)CCC(C)C1CCC2C3C(O)CC4CC(NCCCCNCc5ccccn5)CCC4(C)C3CCC12C (stereo not shown) [DPM-1001]
- IC50 (PTP1B-L192A/S372P): 1000 nM
- copper-induced increase of pS338-RAF1 and pS112-BAD (TNBC cells [1]; 5-10 μM copper in culture media): reduced or blocked
- copper-induced increase of phospho-PAK1 (TNBC cells [1]; copper added to culture media): blocked
- inhibitory potency for truncation mutants relative to PTP1B1-405 and PTP1B1-394 [2]: lower
- reversibility of inhibition of PTP1B1-321 (PTP1B1-321; enzyme-inhibitor complex diluted, activity recovery monitored): reversibly
- time dependent change in the IC50 for PTP1B1-321 (PTP1B1-321; varying incubation times): no obvious time dependent change
- protection from copper-induced cell death [3]: able to rescue cells from copper-induced cell death
- cellular copper levels (TNBC cells [4]): depletion of copper; also recorded: reduces cellular copper levels
- AKT phosphorylation [5]: phosphorylation of AKT; also recorded: enhanced AKT phosphorylation
- tyrosine phosphorylation of insulin receptor β subunit ([5]; insulin-stimulated, orally or intraperitoneally): increased insulin-stimulated insulin receptor phosphorylation; also recorded: marked increase in β-subunit phosphorylation
